Experiments:
Assay in all cases: Phosphatase profiling, Biomol Green
Assay type in all cases: biochemical
CDC25B = CDC25B (Homo sapiens, UniProt P30305); conditions: 30 μM, triplicate
Procedure: (§1) Assays were performed to profile compound CSDDD2320 against 21 phosphatase targets at 1 concentration (30 μM) in triplicate measurements. The aim was to identify whether the compound can affect the activity of the various phosphatase targets selected.
(§2) The PTPN6 (SHP1), PTPRF (LAR), PP1A, PP1B, PP2A, PTPN12(PTP-PEST), PTPN11(SHP2), CDC25A, CDC25B, CDC25C, PP2Ca, and PP2Cg phosphatase activity was determined by performing assays at 37° C. for 15 minutes in a final volume of 50 μl according to the following assay reaction recipe:
(§3) Component 1. 10 μl of diluted active protein phosphatase
(§4) Component 2. 5 μl of 1 mM tyrosine phosphopeptide-2 substrate (for PTPN6, PTPRF, PTPN12, and PTPN11) or threonine phosphopeptide substrate (for PP1A, PP1B, PP2A and PP2Cg) or PI(3,4,5)P3 substrate (for PTEN) or OMFP substrate (for CDC25A, CDC25B and CDC25C)
(§5) Component 3. 25 μl of phosphatase assay buffer
(§6) Component 4. 10 μl of compound (150 μM) or 10% DMSO
(§7) The assay was started by incubating the reaction mixture at 37° C. for 15 minutes. After the 15 minutes incubation period, the assay was terminated by the addition of 100 μl of Biomol Green reagent. The absorbance of the reaction solution was measured in a spectrophotometer at 650 nm. Blank control was set up that included all the assay components except the addition of the tyrosine phosphopeptide-2 substrate or related substrate (replace with equal volume of phosphatase assay buffer). The corrected activity for various phosphatase targets was determined by removing the blank control value.

PTPN12 (PTP-PEST) = PTPN12 (PTP-PEST) (Homo sapiens, UniProt Q05209); conditions: 30 μM, triplicate; negative = inhibition
Procedure: as §1, §2, §3, §4, §5, §6, §7

PP2Cg = PP2Cg (Homo sapiens, UniProt O15355); conditions: 30 μM, triplicate
Procedure: as §1, §2, §3, §4, §5, §6, §7

PP1B = PP1B (Homo sapiens, UniProt P62140); conditions: 30 μM, triplicate; negative = inhibition
Procedure: as §1, §2, §3, §4, §5, §6, §7

PTPRF (LAR) = PTPRF (LAR) (Homo sapiens, UniProt P10586); conditions: 30 μM, triplicate
Procedure: as §1, §2, §3, §4, §5, §6, §7

PTPN11 (SHP2) = PTPN11 (SHP2) (Homo sapiens, UniProt Q06124); conditions: 30 μM, triplicate; positive = activation
Procedure: as §1, §2, §3, §4, §5, §6, §7

CDC25A = CDC25A (Homo sapiens, UniProt P30304); conditions: 30 μM, triplicate; positive = activation
Procedure: as §1, §2, §3, §4, §5, §6, §7

PP2A = conditions: 30 μM, triplicate; negative = inhibition
Procedure: as §1, §2, §3, §4, §5, §6, §7

PTPN6 (SHP1) = PTPN6 (SHP1) (Homo sapiens, UniProt P29350); conditions: 30 μM, triplicate; negative = inhibition
Procedure: as §1, §2, §3, §4, §5, §6, §7

PP1A = PP1A (Homo sapiens, UniProt P62136); conditions: 30 μM, triplicate; negative = inhibition
Procedure: as §1, §2, §3, §4, §5, §6, §7

PP2Ca = PP2Ca (Homo sapiens, UniProt P35813); conditions: 30 μM, triplicate; negative = inhibition
Procedure: as §1, §2, §3, §4, §5, §6, §7

PP2Ca, sequence (P35813 whole entry): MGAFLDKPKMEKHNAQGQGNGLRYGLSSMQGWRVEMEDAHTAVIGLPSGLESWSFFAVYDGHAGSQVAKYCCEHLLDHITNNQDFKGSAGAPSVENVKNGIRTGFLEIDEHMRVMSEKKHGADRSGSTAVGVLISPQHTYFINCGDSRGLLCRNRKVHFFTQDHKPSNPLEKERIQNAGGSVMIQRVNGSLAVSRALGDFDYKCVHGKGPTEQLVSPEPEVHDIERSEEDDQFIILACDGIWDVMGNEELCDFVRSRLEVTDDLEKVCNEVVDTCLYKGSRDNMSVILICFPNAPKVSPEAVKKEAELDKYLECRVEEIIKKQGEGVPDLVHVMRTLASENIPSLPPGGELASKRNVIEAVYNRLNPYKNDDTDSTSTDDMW
PP1A, sequence (P62136 whole entry, species assumed): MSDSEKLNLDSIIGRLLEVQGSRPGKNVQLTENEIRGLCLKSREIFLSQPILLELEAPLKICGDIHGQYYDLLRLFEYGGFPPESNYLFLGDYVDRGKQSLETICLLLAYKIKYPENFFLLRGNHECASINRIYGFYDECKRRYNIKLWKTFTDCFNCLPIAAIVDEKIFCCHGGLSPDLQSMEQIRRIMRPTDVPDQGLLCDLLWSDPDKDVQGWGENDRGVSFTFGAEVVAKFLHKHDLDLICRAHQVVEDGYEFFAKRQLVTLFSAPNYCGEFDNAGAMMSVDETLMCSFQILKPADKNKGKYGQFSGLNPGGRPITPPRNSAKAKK
PP1B, sequence (P62140 whole entry, species assumed): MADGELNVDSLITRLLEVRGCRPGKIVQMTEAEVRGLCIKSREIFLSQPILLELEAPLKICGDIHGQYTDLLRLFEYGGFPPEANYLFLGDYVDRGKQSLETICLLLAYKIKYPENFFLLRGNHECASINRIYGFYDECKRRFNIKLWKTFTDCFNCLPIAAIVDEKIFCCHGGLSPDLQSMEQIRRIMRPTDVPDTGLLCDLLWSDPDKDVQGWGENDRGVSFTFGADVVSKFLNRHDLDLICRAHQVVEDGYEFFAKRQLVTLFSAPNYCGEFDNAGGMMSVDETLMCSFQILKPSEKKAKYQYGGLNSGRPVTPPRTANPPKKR
CDC25A, sequence (P30304 whole entry, species assumed): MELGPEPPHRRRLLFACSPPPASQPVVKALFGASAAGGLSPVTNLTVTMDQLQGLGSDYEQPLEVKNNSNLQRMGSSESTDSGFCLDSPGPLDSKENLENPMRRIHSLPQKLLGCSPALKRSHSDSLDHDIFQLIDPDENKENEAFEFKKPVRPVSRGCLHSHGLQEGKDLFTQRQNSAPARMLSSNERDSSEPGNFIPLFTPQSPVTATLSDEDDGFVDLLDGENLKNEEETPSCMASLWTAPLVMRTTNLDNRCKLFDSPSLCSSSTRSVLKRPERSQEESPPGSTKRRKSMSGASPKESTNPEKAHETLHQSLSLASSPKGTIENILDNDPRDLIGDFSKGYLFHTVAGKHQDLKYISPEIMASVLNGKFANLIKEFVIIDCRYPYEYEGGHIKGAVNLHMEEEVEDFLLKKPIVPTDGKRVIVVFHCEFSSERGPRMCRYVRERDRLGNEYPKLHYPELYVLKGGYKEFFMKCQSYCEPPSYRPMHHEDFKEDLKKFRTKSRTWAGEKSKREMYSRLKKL
PTPRF (LAR), sequence (P10586 30-1907, species assumed): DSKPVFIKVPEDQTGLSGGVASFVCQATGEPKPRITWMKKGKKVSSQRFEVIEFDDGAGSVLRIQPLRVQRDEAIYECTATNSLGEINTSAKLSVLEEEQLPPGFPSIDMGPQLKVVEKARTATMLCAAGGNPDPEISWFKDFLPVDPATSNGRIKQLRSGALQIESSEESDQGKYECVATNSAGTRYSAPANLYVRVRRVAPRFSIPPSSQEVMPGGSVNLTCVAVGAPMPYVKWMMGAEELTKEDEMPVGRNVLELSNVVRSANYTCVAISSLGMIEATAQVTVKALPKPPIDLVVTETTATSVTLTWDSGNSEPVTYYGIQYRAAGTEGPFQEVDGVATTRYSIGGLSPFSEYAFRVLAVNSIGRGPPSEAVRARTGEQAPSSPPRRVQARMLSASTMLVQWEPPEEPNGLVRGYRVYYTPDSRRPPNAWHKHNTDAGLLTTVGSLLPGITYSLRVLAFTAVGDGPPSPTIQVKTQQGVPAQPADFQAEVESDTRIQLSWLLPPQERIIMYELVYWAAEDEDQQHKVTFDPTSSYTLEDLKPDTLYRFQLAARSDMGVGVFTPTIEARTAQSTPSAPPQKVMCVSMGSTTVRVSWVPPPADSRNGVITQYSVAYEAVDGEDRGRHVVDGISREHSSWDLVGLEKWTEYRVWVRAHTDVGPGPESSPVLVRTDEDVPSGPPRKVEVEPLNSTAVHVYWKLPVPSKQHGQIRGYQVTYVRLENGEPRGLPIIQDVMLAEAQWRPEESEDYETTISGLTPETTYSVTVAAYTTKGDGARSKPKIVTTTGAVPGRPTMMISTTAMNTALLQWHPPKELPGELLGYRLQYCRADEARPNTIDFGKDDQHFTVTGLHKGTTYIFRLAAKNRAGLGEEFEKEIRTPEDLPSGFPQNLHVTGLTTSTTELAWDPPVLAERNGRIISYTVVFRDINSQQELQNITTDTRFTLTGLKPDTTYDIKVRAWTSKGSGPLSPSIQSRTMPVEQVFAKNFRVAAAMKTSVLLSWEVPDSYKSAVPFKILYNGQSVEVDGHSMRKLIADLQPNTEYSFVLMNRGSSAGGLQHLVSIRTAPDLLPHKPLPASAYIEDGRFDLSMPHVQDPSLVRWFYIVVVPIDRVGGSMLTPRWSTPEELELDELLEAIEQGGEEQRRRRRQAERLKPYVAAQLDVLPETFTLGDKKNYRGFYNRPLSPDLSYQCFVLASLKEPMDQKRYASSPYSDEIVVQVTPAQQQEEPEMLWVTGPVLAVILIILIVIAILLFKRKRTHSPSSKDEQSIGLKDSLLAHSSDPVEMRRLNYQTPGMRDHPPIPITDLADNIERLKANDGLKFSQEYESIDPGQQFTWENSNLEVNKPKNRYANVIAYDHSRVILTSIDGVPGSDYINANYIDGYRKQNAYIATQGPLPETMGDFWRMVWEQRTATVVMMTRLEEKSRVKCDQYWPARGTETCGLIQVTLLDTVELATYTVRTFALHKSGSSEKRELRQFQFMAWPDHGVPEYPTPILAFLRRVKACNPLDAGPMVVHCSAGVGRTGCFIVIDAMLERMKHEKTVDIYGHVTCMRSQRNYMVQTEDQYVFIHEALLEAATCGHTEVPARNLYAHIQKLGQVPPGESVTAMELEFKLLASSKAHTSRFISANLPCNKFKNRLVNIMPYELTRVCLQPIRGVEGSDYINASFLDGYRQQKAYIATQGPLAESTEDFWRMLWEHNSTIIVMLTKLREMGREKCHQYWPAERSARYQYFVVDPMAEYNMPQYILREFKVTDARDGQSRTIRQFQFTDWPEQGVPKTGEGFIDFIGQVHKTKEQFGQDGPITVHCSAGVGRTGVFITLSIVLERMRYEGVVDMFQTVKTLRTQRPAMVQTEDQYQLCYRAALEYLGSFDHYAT
PTPN12 (PTP-PEST), sequence (Q05209 whole entry, species assumed): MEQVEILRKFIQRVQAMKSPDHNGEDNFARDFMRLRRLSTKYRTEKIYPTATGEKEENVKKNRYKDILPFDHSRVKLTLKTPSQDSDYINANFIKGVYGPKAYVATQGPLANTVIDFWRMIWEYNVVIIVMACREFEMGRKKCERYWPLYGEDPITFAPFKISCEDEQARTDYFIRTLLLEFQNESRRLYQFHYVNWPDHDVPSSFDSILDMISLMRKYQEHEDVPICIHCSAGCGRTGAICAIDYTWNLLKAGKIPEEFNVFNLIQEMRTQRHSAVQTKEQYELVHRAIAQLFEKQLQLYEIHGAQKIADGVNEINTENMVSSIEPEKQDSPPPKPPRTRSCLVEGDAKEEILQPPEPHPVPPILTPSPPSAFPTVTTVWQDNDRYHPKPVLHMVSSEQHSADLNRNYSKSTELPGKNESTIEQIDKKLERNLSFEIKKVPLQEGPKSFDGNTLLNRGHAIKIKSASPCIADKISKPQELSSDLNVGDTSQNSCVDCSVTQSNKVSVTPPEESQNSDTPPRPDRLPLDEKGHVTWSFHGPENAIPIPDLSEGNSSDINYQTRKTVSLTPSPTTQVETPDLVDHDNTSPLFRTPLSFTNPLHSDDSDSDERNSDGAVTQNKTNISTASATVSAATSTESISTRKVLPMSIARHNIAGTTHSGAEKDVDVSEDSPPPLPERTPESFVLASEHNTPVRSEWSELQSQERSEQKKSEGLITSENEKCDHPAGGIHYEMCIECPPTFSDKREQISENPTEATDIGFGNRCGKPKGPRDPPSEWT
CDC25B, sequence (P30305 whole entry, species assumed): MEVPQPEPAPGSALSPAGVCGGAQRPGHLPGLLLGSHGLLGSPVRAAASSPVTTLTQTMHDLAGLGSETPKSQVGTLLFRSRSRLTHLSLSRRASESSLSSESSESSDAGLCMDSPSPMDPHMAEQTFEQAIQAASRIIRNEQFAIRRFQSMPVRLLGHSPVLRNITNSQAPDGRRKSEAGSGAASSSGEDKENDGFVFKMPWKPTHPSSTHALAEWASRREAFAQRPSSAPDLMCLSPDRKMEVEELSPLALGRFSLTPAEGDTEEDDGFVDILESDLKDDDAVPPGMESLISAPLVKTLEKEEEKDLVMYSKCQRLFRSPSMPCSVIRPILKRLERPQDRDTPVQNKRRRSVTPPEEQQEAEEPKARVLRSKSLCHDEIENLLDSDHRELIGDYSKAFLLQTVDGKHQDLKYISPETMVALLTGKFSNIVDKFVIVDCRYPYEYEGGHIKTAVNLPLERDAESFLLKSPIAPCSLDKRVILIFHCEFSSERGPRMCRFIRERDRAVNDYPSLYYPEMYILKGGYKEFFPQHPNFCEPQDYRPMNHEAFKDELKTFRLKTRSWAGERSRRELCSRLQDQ

% Change (activity change compared to control) (CDC25B): 0% | % Change (activity change compared to control) (PTPN12 (PTP-PEST)): −1% | % Change (activity change compared to control) (PP2Cg): 0% | % Change (activity change compared to control) (PP1B): −1% | % Change (activity change compared to control) (PTPRF (LAR)): 0% | % Change (activity change compared to control) (PTPN11 (SHP2)): 4% | % Change (activity change compared to control) (CDC25A): 7% | % Change (activity change compared to control) (PP2A): −3% | % Change (activity change compared to control) (PTPN6 (SHP1)): −5% | % Change (activity change compared to control) (PP1A): −3% | % Change (activity change compared to control) (PP2Ca): −7%
Structure (SMILES): O=S(=O)(O)c1cc(O)c2c(S(=O)(=O)O)cccc2c1 [RR527]
